The results in this text go back to patent US20090162277A1, “Lysophospholipids Solubilized Single-Walled Carbon Nanotubes” (Clemson University, priority 2005, published 2009).

The nature of data set [1]: Solubility assay of SWNTs dispersed in PBS with phospholipids (optical density of supernatant). The class given is physicochemical. From the text: Pristine SWNTs were synthesized using arc-deposition method. The average diameter of the SWNTs was approximately 1.4 nm measured by Raman spectroscopy and the average molecular weight of the SWNTs was 1×10^6 Dalton (Da) estimated from TEM. To measure the solubility provided by pure phospholipids, SWNTs were dispersed in phosphate buffered saline (PBS, pH=7.4) containing phospholipids of varying amounts. […] The weight ratio of solubilized SWNTs to LPC was approximately 1:10 corresponding to a molar ratio of 1:20,000 at saturation (FIG. 2b), indicating the high binding capacity of SWNTs.
Solubility Assays. Glycerol phospholipids and lysoglycerophopholipids were purchased from Avanti Polar Lipids, Inc, AL. Cell growth mediums NB and RPMI fortified with 10% FBS were obtained from Difco and Gibco (Invitrogen), respectively. SWNTs of 1 mg were placed in a series of eppendorf tubes containing lysophospholipids LPC 18:0, PC 24:0, PG 36:2, and PE 32:0 of 10, 40, 100, 400 μg and 1, 4, 10, 40 mg in 1 mL PBS solution. The eppendorf tubes were placed in a water bath and sonicated for 1 hr at room temperature. The solution was centrifuged for 3 min at 6,177 g. Approximately 0.3 mL of the supernatant was transferred into a glass cuvette and read for optical density against a blank at 360 nm. Size Exclusion Chromatography. Sepharose CL-4B beads (Sigma) having an exclusion limit molecular weight of 20×10^6 Da were used for gel filtration chromatography in a 10 mm (diameter)×150 mm (length) open column. The flow rate was produced by gravity at approximately 0.5 mL/min. Samples in 1×PBS of 40 μL were loaded onto the column with 1 M acetic acid as the mobile phase. Molecular weight markers with visible colours were used for calibration. The dark colour of the lysophospholipid dispersed SWNTs was monitored visually by comparing the elution volume with those of standard compounds. SWNT-LPC complexes were centrifuged at 16,060 g and SWNT-LPA complexes centrifuged at 6,177 g for 3 min. Their supernatants were used for size exclusion chromatography. TEM Experiment. Buffered solutions of SWNT-LPC and SWNT-LPG were sonicated for 1 min. The solutions were placed on holey carbon grids for 1 min and the excess drawn off with filter paper. The grid was negatively stained with a 2% uranyl acetate solution for 1 min. The images were recorded at magnification ranges from 400,000 to 600,000 times with the Hitach 7600 transmission electron microscope at 100 and 120 kV. Bioassay. Free lysophospholipids and micelles in SWNT-lysophospholipid solution were removed by filtration through 100 kDa Microcon (Amicon, Inc) centrifugation tubes and washed 4 times. The resulting lysophospholipid-free and micelle-free SWNT-LPC complexes were tested by […] bioassay using colon cancer (CACO-2) and macrophage (THP-1) cell lines. Each cell line was incubated in its own 8-well chamber slide (LabTek) for 48 hr at 37° C. in a CO2 incubator. Prior to treatment, cell adhesion was checked by differential interference contrast (DIC) microscopy using a Zeiss 135 Axiovert inverted microscope. Treatments ranging from 5 to 40 ppm of lysophospholipid-free and micelle-free SWNT-LPC complexes were added to each adherent cell line and incubated for 3 hr at 37° C. in a CO2 incubator. After incubation, control and treated cells were fixed with 4% paraformaldehyde for 30 min, washed in PBS and subjected to an APO-BrdU TUNEL assay (Invitrogen). This assay detects the onset of apoptosis by fluorescent detection of nuclear DNA fragments or DNA breaks. Cells were labeled with deoxythymidine analog 5-bromo-2′-deoxyuridine 5′ triphosphate (BrdUTP) followed by the addition of Alexa-Fluor 488 labeled anti-BrdU antibody. Propidium iodide was used to image the total DNA content of cells. The prepared cells were imaged using a Zeiss 510 LSM confocal fluorescence microscope.

The test system of the next data set is MCF7 cells. In words: Rd-LPE translocation across cell membranes (rhodamine fluorescence imaging). The class given is cell-based. The conditions noted are these: incubation 0.5 to 3.0 hours. On the procedure:
The SWNT lipid assemblies described above may be used to form an “optical switch” using rhodamine-lysophosphoethanolamine (Rd-LPE) and SWNTs. […] The construct of a Rd-LPE molecule and a coupled SWNT functions as a fluorescence resonance energy transfer (FRET) pair. […] FIG. 7A sets forth a control image without SWNTs. Rd-LPE was incubated with MCF7 cells for three hours. […] Images 7C through 7F show increased translocation of Rd-LPE across the MCF7 cells with respective incubation times of 0.5, 1.0, 2.0, and 3.0 hours. […] Further, the fluorescence is indicative that a physical separation between the SWNT and the Rd-LPE has occurred since the quenching effect was not observed.

Where two headings read alike, the source gives them in different places.

As for `CCCCCCCCCCCCCC(=O)OC[C@H](COP(=O)([O-])OCC[N+](C)(C)C)OC(=O)CCCCCCCCCCCCC` [PC 24:0, dimyristoyl phosphatidyl choline, reference compound], the “solubility of SWNTs provided by the phospholipid” value (shortened to “solubility of SWNTs provided”) in data set [1] is recorded as “None of the above phospholipids provided good solubility”.
For the molecule `CCCCCCCCCCCCCCCC(=O)OCC(COP(=O)(O)OCCN)OC(=O)CCCCCCCCCCCCCCC` (stereo not shown) [PE 32:0, 1,2-dipalmityolphosphatidylethanolamine, reference compound], the “solubility of SWNTs provided” value in data set [1] is “None of the above phospholipids provided good solubility”.
Consider `CCCCCCCC/C=C\CCCCCCCC(=O)OCC(COP(=O)(O)OCC(O)CO)OC(=O)CCCCCCC/C=C\CCCCCCCC` (stereo not shown) [PG 36:2, 1,2-dioleoylphosphatidylglycerol, reference compound], for which, in data set [1], the “solubility of SWNTs provided” value was “None of the above phospholipids provided good solubility”.
On the same count and under the same terms, to lysophosphatidic acid [LPA 16:0] belongs “Comparable solubility”.
On to lysophosphatidylcholine [LPC 18:0], for which, in data set [1] (6,177 g RCF at tip), the “effectiveness in dispersing SWNTs in PBS relative to SDS, on per molecule basis” value is given as “approximately 2.5 times”. In addition, the “effectiveness in dispersing SWNTs relative to SDS” value in data set [1] (16,060 g RCF at tip) is reported as “one order of magnitude more effective than SDS”. Moreover, the “solubility of SWNTs provided” value in data set [1] (SWNTs in PBS pH=7.4, sonication 1 hr at room temperature) is on record as “completely solubilized”.
Regarding lysophosphatidylglycerol [LPG 18:0], in data set [1], the “solubility of SWNTs compared with SDS” value is “slightly better than SDS” and the “solubility of SWNTs provided” value is listed as “Comparable solubility”.
Regarding “rhodamine-lysophosphoethanolamine [Rd-LPE]”, the “translocation across the cell membrane (intracellular rhodamine fluorescence)” value in the data set on MCF7 cells is “minimal Rd-LPE translocation”.
